Test results as given in US5516525A, “Vitamin D derivative feed compositions and methods of use” (University of Georgia Research Foundation, Inc., priority 1994, dated 1996).
Like-named read-outs stand apart in the source and are kept apart here.

Legend:
tibial dyschondroplasia [1] = type: in vivo, chicken (Peterson X Arbor Acre cockerels); conditions: for #3/No. / % N2 + 3 / % N3: Study 3; for #3/No. / % N2 + 3 / % N3 / #3/total / % #3: D3 […], derivatives 10 μg/kg feed; for incidence and severity of tibial dyschondroplasia: in words, Example 2
Experimental: Deep irregularities are apparent.
The basal diet used is described above in Table 2. Disulfiram was added to the basal diet of some chickens as indicated in Table 10 at a level of 30 mg/kg of feed.
After the tibia was scored for incidence and severity of tibial dyschondroplasia, the left tibia was removed for a bone ash determination on the fat-free dried bone.

^47 Ca retention = assay: 47Ca absorption and retention (Example 2); type: in vivo, chicken (Peterson X Arbor Acre cockerels); design: key to ^47 Ca intercept / Ca^47 Ret.: % of administered 47Ca retained (y-intercept of retention-vs-days plot); conditions: D3 […], derivatives 10 μg/kg feed; for Ca^47 Ret. / Ca^47 slope: Study 3; for ^47 Ca intercept / ^47 Ca slope: Study 2
Experimental: Absorption and retention of dietary calcium was measured by orally dosing chicks with ^47 Ca and then measuring the total body radioactive count, as described in Suso and Edwards, "A Study of Techniques for Measuring ^65 Zn Absorption and Biological Half-life in the Chicken," Poult. Sci. 47:991-999 (1968). Specifically, ten seven day old birds in one pen under the indicated dietary treatments were dosed orally with 0.5 milliliter of water solution containing 0.5 microcuries of ^47 Ca and 0.1 to 1.0 micrograms of calcium. The total body radioactive content of the individual chickens was determined immediately following dosing, and also on days 7, 9, 12 and 14 following dosing. A plot of percent administered ^47 Ca which was retained versus number of days yields a line which has a slope corresponding to the half-life of the radioactive calcium in the chicken, and a y-intercept that corresponds to the amount of calcium absorbed by the chicken. Effect of vitamin D3 derivatives on Tibial Dyschondroplasia.

[2] = 16-day body weight and gain:feed (Example 2); type: in vivo, chicken (Peterson X Arbor Acre cockerels); conditions: D3 […], derivatives 10 μg/kg feed
Experimental: The basal diet used is described above in Table 2. Disulfiram was added to the basal diet of some chickens as indicated in Table 10 at a level of 30 mg/kg of feed. […]

[3] = 9-day body weight, feed consumption and gain:feed (Example 1); conditions: in words, Example 1
Experimental: Newly hatched Petersen X Arbor Acre cockerels obtained from a commercial hatchery were used. Animals were housed in electrically heated Petersime battery brooders with wire-mesh floors located in a room in which the temperature was maintained at 22° C., fluorescent lights were on 24 hours each day in the room and the cages, and sunlight was present during the day from large windows. No attempt was made to limit the natural production of vitamin D3. Feed and water were available to the chickens at all times.
Ten newly hatched birds were randomly placed in each section of the Petersime batteries until the birds were nine days old. The measurements described below were calculated on a pen basis; all statistical analyses were conducted on pen averages. Blood samples were taken by cardiac puncture with heparinized syringes from one randomly chosen bird from each pen on the ninth day before weighing the birds.
At nine days of age, pen body weights were obtained for all birds and their feed consumption was recorded. […] Briefly, using a three week old chicken as the reference animal, a score of zero indicates normal cartilage which is narrow with little irregularities. […] Deep irregularities are apparent. A score of three indicates a large mass of cartilage in the proximal end of the tibia. The birds were also scored for phosphorus deficient rickets at the same time they were scored for tibial dyschondroplasia. Chickens which had normal proliferating prehypertrophied zone and a lengthened metaphyseal primary spongiosa were classified as phosphorus deficient rickets. The left tibia was removed for bone ash determination on the fat-free bone.

bone ash = bone ash of left tibia (Example 1); conditions: in words
From the text: The left tibia was removed for bone ash determination on the fat-free bone.

tibial dyschondroplasia [4] = conditions: cited from earlier work; for tibial dyschondroplasia (effect of dietary factor): chickens, dietary level
calcium = conditions: in vivo; cited from earlier work
[5] = Study 2, with disulfiram 30 mg/kg feed
[6] = Study 1, with disulfiram 30 mg/kg feed
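Wherever #3/No. is given: score 3 means a large cartilage mass in the proximal tibia.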
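Wherever #3/total is given: score 3 means a large cartilage mass in the proximal tibia.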
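Wherever % #3 is given: score 3 means a large cartilage mass in the proximal tibia.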
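Wherever % N3 is given: score 3 means a large cartilage mass in the proximal tibia.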

## C=C1/C(=C\C=C2/CCC[C@]3(C)[C@@H]([C@H](C)CCC(O)C(C)(C)O)CC[C@@H]23)C[C@@H](O)C[C@@H]1O (stereo partly shown) [1,24,25-(OH)2 D3, 1,24,25-trihydroxycholecalciferol]
Tibial dyschondroplasia [1]
  #3/No.: 6/60
  % N2 + 3: 22%
  % N3: 10%
  incidence and severity of tibial dyschondroplasia: significant reduction in the incidence of tibial dyschondroplasia
Tibial dyschondroplasia [1]; Study 4
  #3/total: 8/57
  % #3: 14%
^47 Ca retention
  Ca^47 Ret.: 76
  Ca^47 slope: -.77
[2]; Study 3
  16 Day Wt.: 428
  Gain/feed: .688
[2]; Study 4
  16 Day wt.: 376
  Gain/feed: .681

## C=C1/C(=C\C=C2/CCC[C@]3(C)[C@@H]([C@H](C)CC[C@@H](F)C(C)(C)O)CC[C@@H]23)C[C@@H](O)C[C@@H]1O [1,25-(OH)2-24R-FD3, 1,25-dihydroxy-24-fluorocholecalciferol]
Tibial dyschondroplasia [1]
  #3/No.: 3/60
  % N2 + 3: 15%
  % N3: 5%
  incidence and severity of tibial dyschondroplasia: significant reduction in the incidence of tibial dyschondroplasia
Tibial dyschondroplasia [1]; Study 4
  #3/total: 9/56
  % #3: 16%
^47 Ca retention
  Ca^47 Ret.: 72
  Ca^47 slope: -.47
[2]; Study 3
  16 Day Wt.: 413
  Gain/feed: .663
[2]; Study 4
  16 Day wt.: 360
  Gain/feed: .661

## [2H]C([2H])([2H])C(O)(CCC[C@@H](C)[C@H]1CC[C@H]2/C(=C/C=C3/C[C@@H](O)C[C@H](O)C3=C)CCC[C@]12C)C([2H])([2H])[2H] [1,25-(OH)2-26,27[^1 H]6 D3, 1,25-dihydroxy-26,27-hexadeuterocholecalciferol]
Tibial dyschondroplasia [1]
  #3/No.: 0/60
  % N2 + 3: 8%
  % N3: 0%
  incidence and severity of tibial dyschondroplasia: significant reduction in the incidence of tibial dyschondroplasia
Tibial dyschondroplasia [1]; Study 4
  #3/total: 4/58
  % #3: 7%
^47 Ca retention
  Ca^47 Ret.: 80
  Ca^47 slope: .15
[2]; Study 3
  16 Day Wt.: 422
  Gain/feed: .687
[2]; Study 4
  16 Day wt.: 360
  Gain/feed: .646

## C=C1/C(=C\C=C2/CCC[C@]3(C)[C@@H]([C@H](C)CCCC(C)C)CC[C@@H]23)C[C@@H](O)C[C@@H]1O [1-OHD3, 1-hydroxycholecalciferol]
[3]
  nine day weight: increased
Tibial dyschondroplasia [1]
  #3/No.: 3/60
  % N2 + 3: 17%
  % N3: 5%
  incidence and severity of tibial dyschondroplasia: significant reduction in the incidence of tibial dyschondroplasia
Tibial dyschondroplasia [1]; Study 4
  #3/total: 8/57
  % #3: 15%
Bone ash
  bone ash: increased
^47 Ca retention
  Ca^47 Ret.: 75
  Ca^47 slope: -.95
[2]; Study 3
  16 Day Wt.: 423
  Gain/feed: .661
[2]; Study 4
  16 Day wt.: 372
  Gain/feed: .655

## C=C1CC[C@H](O)C/C1=C/C=C1\CCC[C@]2(C)[C@@H]([C@H](C)CCC(O)C(C)(C)O)CC[C@@H]12 (stereo partly shown) [24,25-(OH)2 D3, 24,25-dihydroxycholecalciferol, reference compound]
Tibial dyschondroplasia [4]; 20 ng/day, Edwards, J. Nutr. 114:1001 (1984)
  incidence of tibial dyschondroplasia: no effect on the incidence of tibial dyschondroplasia
[3]
  nine day weight: no effect
Tibial dyschondroplasia [1]
  #3/No.: 17/59
  % N2 + 3: 53%
  % N3: 29%
  incidence and severity of tibial dyschondroplasia: not effective in preventing the development of tibial dyschondroplasia
Tibial dyschondroplasia [1]; Study 4
  #3/total: 25/56
  % #3: 46%
Bone ash
  bone ash: no effect
^47 Ca retention
  Ca^47 Ret.: 67
  Ca^47 slope: -.77
[2]; Study 3
  16 Day Wt.: 424
  Gain/feed: .696
[2]; Study 4
  16 Day wt.: 351
  Gain/feed: .663

## C=C1CC[C@H](O)C/C1=C/C=C1\CCC[C@]2(C)[C@@H]([C@H](C)CCCC(C)(C)O)CC[C@@H]12 [25-OHD3, 25-hydroxycholecalciferol]
Tibial dyschondroplasia [1]; Study 1, basal diet
  #3/total: 1/28
Tibial dyschondroplasia [1]; Study 2, basal diet
  #3/total: 7/30
Tibial dyschondroplasia [1]; [5]
  #3/total: 11/28
Tibial dyschondroplasia [1]
  incidence and severity of tibial dyschondroplasia: reduced the incidence of tibial dyschondroplasia
^47 Ca retention; basal diet
  ^47 Ca intercept: 72
^47 Ca retention; with disulfiram 30 mg/kg feed
  ^47 Ca intercept: 74
  ^47 Ca slope: -1.67
[2]; Study 1, basal diet
  16 Day wt.: 395
  Gain:Feed: .667
[2]; [6]
  16 Day wt.: 398
  Gain:Feed: .706
[2]; Study 2, basal diet
  16 day wt: 392
  Gain:Feed: .713
[2]; [5]
  16 day wt: 395
  Gain:Feed: .728

## C=C1CC[C@H](O)C/C1=C/C=C1\CCC[C@]2(C)[C@@H]([C@H](C)CCCC(C)C)CC[C@@H]12 [D3, cholecalciferol, reference compound]
Tibial dyschondroplasia [1]; Study 1, basal diet
  #3/total: 4/27
Tibial dyschondroplasia [1]; [6]
  #3/total: 9/27
Tibial dyschondroplasia [1]; Study 2, basal diet
  #3/total: 5/29
Tibial dyschondroplasia [1]; [5]
  #3/total: 12/30
Tibial dyschondroplasia [1]
  #3/No.: 13/59
  % N2 + 3: 34%
  % N3: 22%
Tibial dyschondroplasia [1]; Study 4
  #3/total: 20/58
  % #3: 35%
^47 Ca retention; basal diet
  ^47 Ca intercept: 77
  ^47 Ca slope: -1.88
^47 Ca retention; with disulfiram 30 mg/kg feed
  ^47 Ca intercept: 72
  ^47 Ca slope: -1.97
^47 Ca retention
  Ca^47 Ret.: 75
  Ca^47 slope: -1.13
[2]; Study 1, basal diet
  16 Day wt.: 451
  Gain:Feed: .734
[2]; [6]
  16 Day wt.: 432
  Gain:Feed: .708
[2]; Study 2, basal diet
  16 day wt: 368
  Gain:Feed: .647
[2]; [5]
  16 day wt: 374
  Gain:Feed: .666
[2]; Study 3
  16 Day Wt.: 434
  Gain/feed: .709
[2]; Study 4
  16 Day wt.: 383
  Gain/feed: .701

## CCN(CC)C(=S)SSC(=S)N(CC)CC [Disulfiram, bis(diethylthiocarbamyl)disulfide, reference compound]
Tibial dyschondroplasia [1]; [6]
  #3/total: 16/30
Tibial dyschondroplasia [1]; [5]
  #3/total: 14/28
calcium
  calcium absorption / loss: lowers the absorption of calcium
^47 Ca retention; with disulfiram 30 mg/kg feed
  ^47 Ca intercept: 73
  ^47 Ca slope: -1.59
[2]; [6]
  16 Day wt.: 433
  Gain:Feed: .750
[2]; [5]
  16 day wt: 394
  Gain:Feed: .671

## CN(C)C(=S)SSC(=S)N(C)C [thiruram, bis(dimethylthiocarbamyl)disulfide, reference compound]
Tibial dyschondroplasia [4]
  tibial dyschondroplasia (effect of dietary factor): causes tibial dyschondroplasia
calcium
  calcium absorption / loss: rapid loss of intramuscularly-injected calcium

## calcium
Tibial dyschondroplasia [4]
  tibial dyschondroplasia (effect of dietary factor): retards development of the lesion

## chloride
Tibial dyschondroplasia [4]
  tibial dyschondroplasia (effect of dietary factor): increased the incidence of the abnormality

## magnesium
Tibial dyschondroplasia [4]
  tibial dyschondroplasia (effect of dietary factor): decrease the incidence of tibial dyschondroplasia
